Key:
[1] = biological target: T1, Alpha-1B adrenergic receptor (Homo sapiens, UniProt P35368)
T1 sequence (P35368 whole entry): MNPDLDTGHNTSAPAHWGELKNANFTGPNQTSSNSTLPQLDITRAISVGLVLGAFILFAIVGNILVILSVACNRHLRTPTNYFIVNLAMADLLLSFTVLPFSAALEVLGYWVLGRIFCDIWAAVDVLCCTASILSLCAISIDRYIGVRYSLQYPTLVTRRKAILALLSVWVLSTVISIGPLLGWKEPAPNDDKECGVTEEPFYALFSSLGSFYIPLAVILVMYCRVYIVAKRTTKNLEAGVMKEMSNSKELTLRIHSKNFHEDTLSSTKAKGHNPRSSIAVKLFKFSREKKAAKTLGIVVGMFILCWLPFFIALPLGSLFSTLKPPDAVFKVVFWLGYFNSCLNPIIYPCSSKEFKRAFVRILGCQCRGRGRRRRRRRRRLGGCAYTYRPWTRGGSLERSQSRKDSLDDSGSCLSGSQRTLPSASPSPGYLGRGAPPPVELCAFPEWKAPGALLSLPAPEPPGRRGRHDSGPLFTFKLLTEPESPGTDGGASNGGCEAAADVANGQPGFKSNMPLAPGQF

[2] = biological target: T2, Alpha-1D adrenergic receptor (Homo sapiens, UniProt P25100)
T2 sequence (P25100 whole entry): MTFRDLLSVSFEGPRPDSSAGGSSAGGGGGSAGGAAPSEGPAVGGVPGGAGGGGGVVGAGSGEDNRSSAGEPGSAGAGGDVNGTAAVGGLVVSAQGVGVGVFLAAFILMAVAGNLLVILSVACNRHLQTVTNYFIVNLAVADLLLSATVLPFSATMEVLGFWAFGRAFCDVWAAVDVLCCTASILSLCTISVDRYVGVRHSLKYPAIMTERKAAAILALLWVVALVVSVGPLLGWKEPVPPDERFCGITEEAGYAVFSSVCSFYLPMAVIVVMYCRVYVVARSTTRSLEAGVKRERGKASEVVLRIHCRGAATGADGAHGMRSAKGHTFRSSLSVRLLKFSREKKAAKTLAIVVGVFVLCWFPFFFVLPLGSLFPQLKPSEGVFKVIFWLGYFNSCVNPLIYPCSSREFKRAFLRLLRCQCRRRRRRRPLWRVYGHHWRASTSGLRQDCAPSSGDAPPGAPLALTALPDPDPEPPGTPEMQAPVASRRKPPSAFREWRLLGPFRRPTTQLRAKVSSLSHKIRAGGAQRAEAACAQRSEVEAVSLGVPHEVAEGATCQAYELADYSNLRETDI

| Ki [1] [nM] | Ki [2] [nM] | Structure (SMILES) |
| --- | --- | --- |
| 0.6 | 0.056 | CCOc1ccccc1OCCN[C@H](C)Cc1ccc(OC)c(S(N)(=O)=O)c1 [5-[(2R)-2-{[2-(2-ethoxyphenoxy)ethyl]amino}propyl]-2-methoxybenzenesulfonamide] |
| – | 0.66 | COc1cc2nc(N3CCN(C(=O)C4CCCO4)CC3)nc(N)c2cc1OC (stereo not given) [6,7-dimethoxy-2-[4-(tetrahydrofuran-2-ylcarbonyl)piperazin-1-yl]quinazolin-4-amine] |
| 25.1 | 0.91 | COc1cccc2c1C1CN(CCCCn3c(=O)[nH]c4c(sc5ncc(-c6ccccc6)nc54)c3=O)CC1CO2 (stereo not given) [CAS_172307] |

— BindingDB's records for doi:10.1124/jpet.300.2.478 (Abbott Laboratories, 2002)
